# Data: patent US20050026950A1, “Methods of therapeutic treatment using retinoids to achieve consistent bioavailability” (Allergan, Inc., priority 2003, published 2005)
# Tests used:
# Type in all cases: in vivo, human
# severe nodulocystic acne = assay: Multicenter double-blind placebo-controlled study of oral tazarotene in severe nodulocystic acne; details: for patients withdrawing due to adverse events: treatment period
# Text: A multicenter, double-blind, randomized, placebo-controlled parallel-group study is undertaken to determine the efficacy of orally administered tazarotene in treating severe nodulocystic acne.
# In addition, washout periods for other medications for this study are: 1 week for vitamin A supplements >5000 IU; 2 weeks for topical anti-acne medications (e.g., retinoids, azelaic acid, benzoyl peroxide); 2 weeks for topical or systemic antibiotic therapy that may alter the course of acne; and 6 months for systemic retinoids.
# Patients are randomized to receive placebo or oral tazarotene (0.75, 1.5, 3, or 6 mg), in a 1:1:1:1:1 ratio once daily for 24 weeks. After this, the patients are followed without treatment for an additional 12 weeks. Patients discontinuing from the treatment period due to adverse effects or lack of efficacy are eligible for entry into the post-treatment phase.
# In the study, overall acne severity is rated as: none (no inflammatory acne lesions); mild (few to several papules or pustules, no nodulocystic lesions); moderate (several to many papules or pustules, few to several nodulocystic lesions); and severe (numerous or extensive papules or pustules, many, for example, at least about 5 or at least about 10, nodulocystic lesions).
# Treatment success is defined as at least moderate (about 50%) improvement on the following 7-point global response scale: • 0=completely cleared • 1=almost cleared (about 90% improvement) • 2=marked response (about 75% improvement) • 3=moderate response (about 50% improvement) • 4=slight response (about 25% improvement) • 5=condition unchanged • 6=condition worsened
# In this study, facial nodulocystic lesion count includes lesions greater than 5 mm in size. Facial papular/pustular lesion count includes lesions less than or equal to 5 mm in size. Facial non-inflammatory lesion count includes open and closed comedones.
# Sebum output is assessed every 4 weeks at selected centers using the Sebutape® patches, sold by Cuderm Corporation. Urinalysis, chemistry, and hematology values are monitored. Bone formation and resorption assessments (serum bone alkaline phosphatase and serum amino terminal telopeptides, respectively) at selected centers are monitored.
# Bone mineral density of spine and proximal femur at selected centers is monitored. Ligament calcification or osteophyte formation (lateral X-ray of the cervical and thoracic spine, and ankle calcaneous) is monitored. Epiphyseal growth plate closure (internal oblique X-ray of the ankle in patients less than or equal to 21 years old) is monitored.
# [1] = Studies of orally administered tazarotene for acne, adverse event monitoring; details: combined data from Studies 1 and 2 (N = 223)
# Procedure: Studies are conducted on orally administered tazarotene for the treatment of acne. Adverse events (side effects) are monitored.
# [2] = PK and PD interaction studies of oral tazarotene and oral contraceptives in healthy volunteers; details: orally, up to 6 mg once daily
# Procedure: It is the objective of this study to determine if there are pharmacokinetic (PK) and pharmacodynamic (PD) interactions between tazarotene and commonly prescribed oral contraceptives (OCs) when coadministered together.
# Three separate clinical studies are conducted to evaluate the PK and PD interactions of oral tazarotene and OCs in healthy volunteers. Two studies evaluate daily doses of norethindrone (NE)/ethinyl estradiol (EE) with daily doses of tazarotene 1.1 mg (N=27) and 6 mg (N=29). The third study assesses the daily doses of norgestimate (NGM)/EE with daily doses of tazarotene 6 mg (N=26). OCs are administered for three consecutive menstrual cycles. Daily doses of tazarotene are started during the 2nd cycle and continued through the end of the studies. PK parameters for EE, NE, and NGM (AUC0-24 and Cmax) are determined before tazarotene dosing and after tazarotene dosing on day 6 of the 2nd and 3rd cycles. Serum concentrations of luteinizing hormone (LH) and follicle-stimulating hormone (FSH)-markers of contraceptive efficacy are also evaluated before tazarotene dosing and after tazarotene dosing on days 2, 4, and 6 of the 2nd and 3rd cycles. Serum progesterone levels are assessed on days 18 and 20 of the 2nd and 3rd cycles. […]
# [3] = 0.75 to 6 mg once daily, 24 weeks
structure (smiles),measurement,setting,value
CCOC(=O)c1ccc(C#Cc2ccc3c(c2)C(C)(C)CCS3)nc1 [tazarotene],patients withdrawing due to adverse events,severe nodulocystic acne; 0.75 mg group (2/35),6%
same,patients withdrawing due to adverse events,severe nodulocystic acne; 1.5 mg group (0/37),0%
same,incidence of treatment success vs placebo,"severe nodulocystic acne; 3 mg and 6 mg, week 24 and post-treatment phase, p≦0.05",significantly higher incidence of treatment success
same,patients withdrawing due to adverse events,severe nodulocystic acne; 3 mg group (2/37),5%
same,patients withdrawing due to adverse events,severe nodulocystic acne; 6 mg group (1/36),3%
same,reduction of overall acne severity vs placebo,"severe nodulocystic acne; 6 mg, week 16 until end of post-treatment phase, p≦0.01",significantly more than placebo
same,"bone formation and resorption (serum bone alkaline phosphatase, amino terminal telopeptides)",severe nodulocystic acne; [3],do not appear to be altered
same,"changes in urinalysis, chemistry, or hematology measures (liver function, triglycerides, total and HDL cholesterol)",severe nodulocystic acne; [3],None of the treatment groups show any consistent clinically significant changes
same,"ligament calcification, osteophyte formation, or changes in bone density",severe nodulocystic acne; [3],None of the treatment groups show any clinically significant
same,percentage of patients with at least a 90% reduction in facial nodulocystic lesion count vs placebo,"severe nodulocystic acne; 1.5, 3, and 6 mg groups, week 24",significantly greater
same,sebum secretion (Sebutape method),"severe nodulocystic acne; oral, 0.75 to 6 mg, vs placebo",does not substantially reduce sebum secretion relative to placebo
same,patients achieving treatment success (≧50% global improvement),"severe nodulocystic acne; three highest doses, by week 12",more than 70%
same,patients achieving treatment success (≧50% global improvement),"severe nodulocystic acne; two highest doses, by week 24",more than 86%
same,Cheilitis,[1],134 (60.1) number (%) of patients
same,Conjunctivitis,[1],0 (0.0) number (%) of patients
same,Desquamation central face/Desquamation,[1],1 (0.4) number (%) of patients
same,Dry Skin,[1],79 (35.4) number (%) of patients
same,Dry nose,[1],7 (3.1) number (%) of patients
same,Epistaxis,[1],6 (2.7) number (%) of patients
same,Fingertip peeling/Desquamation,[1],1 (0.4) number (%) of patients
same,Headache,[1],26 (11.7) number (%) of patients
same,Irritation of eyes,[1],0 (0.0) number (%) of patients
same,Joint pain/Arthralgia,[1],18 (8.1) number (%) of patients
same,Peeling/Desquamation,[1],1 (0.4) number (%) of patients
same,Pruritus,[1],10 (4.5) number (%) of patients
same,Rash-dermatitis/Rash,[1],7 (3.1) number (%) of patients
same,Red Scaly face/Desquamation,[1],1 (0.4) number (%) of patients
same,Skin fragility/Skin disorder,[1],1 (0.4) number (%) of patients
same,effect on the PK or efficacy of NE/EE and NGM/EE oral contraceptives,[2],does not affect
